Counter-ions that a name gives are not always drawn.
How the values were obtained:
[1] = molecular target: human recombinant FKBP-12 (Homo sapiens, UniProt P62942); assay: coupled colorimetric PPIase (rotamase) assay, FKBP-12; format: biochemical; conditions: succinyl-AFPF-pNA substrate, chymotrypsin-coupled, 10° C., pH 8.0; read-out: IC50 for inhibition of the FKBP-12 enzyme
Source text: The affinity of the compounds of the formula (I) for FKBP-12 can be determined in vitro in a coupled calorimetric PPlase assay using similar procedures to published methods (e.g. see Kofron, J. L., et al., Biochemistry, 1991,30, 6127-6134, Zarnt, T., et al., Biochem. J. 1995, 305, 159-164, Holt, D. A., et al., J. Am. Chem. Soc., 1993, 115, 9925-9938). In these methods, the cis-trans isomerisation of a hydrophobic amino acid-proline bond in a tetrapeptide substrate (e.g. the phenylalanine-proline bond in N-succinyl-ala-phe-pro-phe-p-nitroanilide [succinyl-AFPF-pNA]) can be determined by monitoring cleavage of pNA from the transPro-containing peptide by an excess of chymotrypsin.
The IC50 (the concentration of the compound of the formula (I) producing 50% inhibition) values were determined using the following assay methodology. Assay buffer (2.175 ml) (50 mM 4-(2-hydroxyethyl)-1-piperazineethanesulphonic acid (HEPES), 100 mM NaCl, 1 mM dithiothreitol (DTT), pH 8.0) is equilibrated to 10° C. in a cuvette. 12.5 μl of a solution of the present compound in DMSO, 250 μl of a 60 mg/ml solution of α-chymotrypsin in 1 mM aqueous hydrochloric acid and then 50 μl of a solution of human recombinant FKBP-12 (4.5 μM) in assay buffer are added and mixed. The reaction is initiated by addition of 12.5 μl of a solution of 20 mM succinyl-AFPF-pNA in DMSO. The absorbance at 390 nm is monitored for one minute collecting data every 0.25 second. Data are fitted with a first order rate equation with offset and the rate constant obtained corrected for the rate of uncatalysed isomerisation of the substrate. The rate constant determined at different inhibitor concentrations (10 nM to 100 μM) is expressed as % inhibition of the control rate constant. The IC50 is estimated using a non-linear least squares curve fitting routine of the sigmoidal dose response data.

[2] = molecular target: T1, human recombinant FKBP52 (Homo sapiens, UniProt Q02790); assay: PPIase (rotamase) assay, FKBP-52; format: biochemical; conditions: read-out: IC50 for inhibition of the FKBP-52 enzyme
T1 sequence (Q02790 1-459): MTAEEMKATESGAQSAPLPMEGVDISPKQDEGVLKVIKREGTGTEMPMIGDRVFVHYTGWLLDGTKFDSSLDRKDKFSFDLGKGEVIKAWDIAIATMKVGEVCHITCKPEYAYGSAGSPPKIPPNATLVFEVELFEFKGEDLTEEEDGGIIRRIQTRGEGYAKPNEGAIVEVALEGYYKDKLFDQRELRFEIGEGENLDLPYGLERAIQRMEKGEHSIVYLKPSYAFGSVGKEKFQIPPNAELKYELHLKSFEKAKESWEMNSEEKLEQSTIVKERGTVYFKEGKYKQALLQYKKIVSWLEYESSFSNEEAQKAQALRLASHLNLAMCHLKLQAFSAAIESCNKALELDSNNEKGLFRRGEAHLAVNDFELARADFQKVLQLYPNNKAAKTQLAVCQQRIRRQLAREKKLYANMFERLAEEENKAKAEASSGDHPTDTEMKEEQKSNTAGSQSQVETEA
Method: Assay buffer (2.175 ml) (50 mM HEPES, 100 mM NaCl, 1 mM DTT, pH 8.0) is equilibrated to 10° C. in a cuvette. 12.5 μl of a solution of the present compound in DMSO, 250 μl of a 60 mg/ml solution of α-chymotrypsin in 1 mM aqueous hydrochloric acid and then 50 μL of a solution of human recombinant FKBP-12 (1.5 μM) in assay buffer are added and mixed. The reaction is initiated by adding 1 2.5 μl of a solution of anhydrous succinyl-ALPF-pNA (100 μM final concentration) in a 400 mM solution of LiCl in trifluoroethanol. The absorbance at 390 nm is monitored for 3 minutes collecting data every 0.5 second. Data are fitted with a first order rate equation with offset and the initial velocity (v) is calculated from the concentration of cis (re leu-pro bond)-succinyl-ALPF-pNA at to and the first order rate constant at different inhibitor concentrations (I). Data in the form vinh/vcontrol v. [I] are fitted with an equation for reversible tight binding inhibition to generate values for Ki,app (see Morrison, J. F., et al, Comments Mol. Cell Biophys., 1985, 2, 347-368). This analysis is used when the Ki,app approaches the concentration of FKBP-12 in the assay (30 nM). […] The same methodology is used to generate Ki,app for FKBP52 with the following modifications: Forty microlitres human recombinant FKBP52 (5.2 μM) is substituted for FKBP12 and 2.185 ml assay buffer are used in the assay. […]

Chain of human recombinant FKBP-12 (P62942 whole entry): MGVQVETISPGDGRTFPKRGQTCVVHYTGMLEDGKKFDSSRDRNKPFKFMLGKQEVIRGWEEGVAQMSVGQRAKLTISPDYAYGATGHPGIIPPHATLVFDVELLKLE

IC50 [1] [µM]	IC50 [2] [µM]	SMILES
< 1.2	–	O=C(N[C@H]1CCN(Cc2cnc3ccccc3c2)C1)[C@@H]1CCCCN1c1nc2ccccc2o1 [Example 19]
< 1.2	–	O=C(N[C@H]1CCN(C(=O)c2cc(N3CCCCC3)nc3ccccc23)C1)[C@@H]1CCCCN1c1nc2ccccc2o1 [Example 25, (2S)-N^2-{(3S)-1-[2-Piperidinoquinolin-4-ylcarbonyl]pyrrolidin-3-yl}-1-(1,3-benzoxazol-2-yl)-2-piperidinecarboxamide]
< 1.2	–	O=C(N[C@H]1CCN(Cc2cccnc2)C1)[C@@H]1CCCCN1c1nc2ccccc2o1 [Example 7, (2S)-1-(1,3-Benzoxazol-2-yl)-N^2-[(3S)-1-(3-pyridinylmethyl)pyrrolidin-3-yl]-2-piperidinecarboxamide]
< 1.2	–	COc1cc(C(=O)N2CC[C@H](NC(=O)[C@@H]3CCCCN3c3nc4ccccc4o3)C2)nc2ccccc12 [Example 23, (2S)-N^2-{(3S)-1-[4-Methoxyquinolin-2-ylcarbonyl]pyrrolidin-3-yl}-1-(1,3-benzoxazol-2-yl)-2-piperidinecarboxamide]
< 1.2	–	O=C(N[C@H]1CCN(C(=O)c2ccc3cn[nH]c3c2)C1)[C@@H]1CCCCN1c1nc2ccccc2o1 [Example 27, (2S)-N^2-{(3S)-1-[1H-benzpyrazol-6-ylcarbonyl]pyrrolidin-3-yl}-1-(1,3-benzoxazol-2-yl)-2-piperidinecarboxamide]
< 1.2	–	COc1ccc2nc(-c3ccccc3)cc(C(=O)N3CC[C@H](NC(=O)[C@@H]4CCCCN4c4nc5ccccc5o4)C3)c2c1 [Example 24, (2S)-N^2-{(3S)-1-[6-Methoxy-2-phenylquinolin-4-ylcarbonyl]pyrrolidin-3-yl}-1-(1,3-benzoxazol-2-yl)-2-piperidinecarboxamide]
< 1.2	–	O=C(N[C@H]1CCN(Cc2cc3ccccc3nc2Cl)C1)[C@@H]1CCCCN1c1nc2ccccc2o1 [Example 16]
< 1.2	–	O=C(N[C@H]1CCN(C(=O)c2cc(Cl)nc3ccccc23)C1)[C@@H]1CCCCN1c1nc2ccccc2o1 [Example 26, (2S)-N^2-{(3S)-1-[2-Chloroquinolin-4-ylcarbonyl]pyrrolidin-3-yl}-1-(1,3-benzoxazol-2-yl)-2-piperidinecarboxamide]
< 1.2	–	CC(c1ccnc2ccccc12)N1CC[C@H](NC(=O)[C@@H]2CCCCN2c2nc3ccccc3o2)C1 (stereo partly shown) [Example 20]
< 1.2	–	O=C(N[C@H]1CCN(Cc2ccccc2)C1)[C@@H]1CCCCN1c1nc2ccc(Br)cc2o1 [Example 15, (2S)-N^2-[(3S)-1-Benzylpyrrolidin-3-yl]-1-(6-bromo-1,3-benzoxazol-2-yl)-2-piperidinecarboxamide]
< 1.2	–	O=C(N[C@H]1CCN(Cc2ccccc2)C1)C1CCCCN1c1nc2ccccc2[nH]1 (stereo partly shown) [Example 41]
< 1.2	–	O=C(N[C@H]1CCN(Cc2ccnc3ccccc23)C1)[C@@H]1CCCCN1c1nc2ccccc2o1 [Example 17]
< 1.2	–	O=C(N[C@H]1CCN(Cc2ccncc2)C1)[C@@H]1CCCCN1c1nc2ccccc2o1 [Example 8, (2S)-1-(1,3-Benzoxazol-2-yl)-N^2-[(3S)-1-(4-pyridinylmethyl)pyrrolidin-3-yl]-2-piperidinecarboxamide]
< 1.2	–	O=C(N[C@H]1CCN(C(=O)c2cc(-c3ccccc3)nc3ccccc23)C1)[C@@H]1CCCCN1c1nc2ccccc2o1 [Example 22, (2S)-N^2-{(3S)-1-[2-Phenylquinolin-4-ylcarbonyl]pyrrolidin-3-yl}-1-(1,3-benzoxazol-2-yl)-2-piperidinecarboxamide]
< 1.2	–	O=C(N[C@H]1CCN(C(=O)c2ccc3ccccc3n2)C1)[C@@H]1CCCCN1c1nc2ccccc2o1 [Example 21, (2S)-N^2-{(3S)-1-[Quinolin-2-ylcarbonyl]pyrrolidin-3-yl}-1-(1,3-benzoxazol-2-yl)-2-piperidinecarboxamide]
< 1.2	–	O=C(NC1CCCN(Cc2ccccc2)C1)[C@@H]1CCCCN1c1nc2ccccc2o1 (stereo partly drawn) [Example 30, (2S)-1-(1,3-Benzoxazol-2-yl)-N^2-(1-benzyl-3-piperidinyl)-2-piperidinecarboxamide]
< 1.2	2.79	O=C(N[C@H]1CCN(Cc2ccccc2)C1)[C@@H]1CCCCN1c1nc2ccccc2o1 [Example 2, (2S)-1-(1,3-Benzoxazol-2-yl)-N^2-[(3S)-1-benzylpyrrolidin-3-yl]-2-piperidinecarboxamide]
< 1.2	–	O=C(N[C@H]1CN[C@H](COCc2ccccc2)C1)[C@@H]1CCCCN1c1nc2ccccc2o1 [Example 35, (2S)-1-(1,3-Benzoxazol-2-yl)-N^2-(3R,5S)-5-[(benzyloxy)methyl]pyrrolidin-3-yl-2-piperidinecarboxamide hydrochloride]
< 1.2	–	NC(=O)c1cccc(CN2CC[C@H](NC(=O)[C@@H]3CCCCN3c3nc4ccccc4o3)C2)c1 [Example 13a, (2S)-N^2-1-{(3S)-1-[3-(Aminocarbonyl)phenylmethyl]pyrrolidin-3-yl}-1-(1,3-benzoxazol-2-yl)-2-piperidinecarboxamide]
< 1.2	–	O=C(N[C@H]1CCN(Cc2ccccn2)C1)[C@@H]1CCCCN1c1nc2ccccc2o1 [Example 6, (2S)-1-(1,3-Benzoxazol-2-yl)-N^2-[(3S)-1-(2-pyridinylmethyl)pyrrolidin-3-yl]-2-piperidinecarboxamide]
< 1.2	–	O=C(N[C@H]1CCN(Cc2ccc3ccccc3n2)C1)[C@@H]1CCCCN1c1nc2ccccc2o1 [Example 18]

From US6372736B1, “Heterocyclic compounds as inhibitors of rotamase enzymes” (Pfizer INC, priority 1999, dated 2002)
